These are literature values, as cited in patent US12599677B2, “Targeted PH sensitive liposomes” (Northwestern University, priority 2020, dated 2026).

With `C=C1CC[C@@H]2[C@](C)(CO)[C@H](O)CC[C@@]2(C)[C@@H]1C/C=C1/C(=O)OC[C@H]1O` [andrographolide], the solubility in water entry is given as “low solubility in water”.
